Consider 11 molecules from patent US11986471B2, “Compounds and methods of use” (Tango Therapeutics, Inc., priority 2018, dated 2024).

Broadly, the pIC50 is the negative decadic logarithm of the IC50, by convention in mol/L.

For test [1], the target named is T1, PRMT5 (Homo sapiens, UniProt O14744).
T1 construct: purchased Viva (custom protein)
Kind of test: PRMT5 IC50 assay with no cofactor. It is filed as biochemical. Summed up:
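Results given as IC50 (μM), from which Ki follows by dividing by 1.5 in the SAM condition or by 13.5 in the MTA condition. The ratio of SAM Ki to MTA Ki indicates MTA-cooperative preference.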

The target in test [2] is T1, PRMT5. Kind of test: PRMT5 IC50 assay in the presence of SAM as cofactor. It is filed as biochemical. The gist of the method: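 Enzyme: human PRMT5. Conditions: plus SAM, plus MTA, or cofactor-free. Output: IC50 (μM); Ki via IC50/1.5 (SAM) or IC50/13.5 (MTA).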
Test [3] deals with T1, PRMT5. Kind of test: PRMT5 IC50 assay in the presence of MTA as cofactor. It is filed as biochemical. As to conditions: for pIC50: PRMT5, MTA as cofactor. The gist of the method:
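MTA-dependent versus SAM-dependent inhibition of human PRMT5 was assessed by IC50; conversion factors of 13.5 and 1.5 gave the corresponding Ki.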

The next test relates to HAP1 MTAP-intact. As to the kind of experiment: SDMA in-cell western assay, HAP1 MTAP-intact cell line. In kind it is cell-based. As to conditions: Homo sapiens. The gist of the method:
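Using an MTAP-isogenic HAP1 cell pair, inhibition of SDMA formation is read by in-cell western and expressed as IC50. MTAP-selectivity is assigned where the ratio between lines reaches 3 fold or greater.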

The subject of another test is HAP1 MTAP-deleted. As to the kind of experiment: SDMA in-cell western assay, HAP1 MTAP-deleted cell line. In kind it is cell-based. The note with it: for pIC50: Homo sapiens, HAP1 MTAP-deleted cell line; for MTAP Intact/Deleted Ratio: IC50 ratio HAP1 MTAP-intact / HAP1 MTAP-deleted. Summed up:
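In-cell western for SDMA marks; MTAP-deleted (null) HAP1 background; values given as IC50.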

The mark [4] stands for this setting: ratio between the Ki in the presence of SAM and the Ki in the presence of MTA.
Setting [5] is: ratio between Ki in the presence of SAM and Ki in the presence of MTA.

pIC50: −log10 of the molar value.

T1 sequence (O14744 whole entry): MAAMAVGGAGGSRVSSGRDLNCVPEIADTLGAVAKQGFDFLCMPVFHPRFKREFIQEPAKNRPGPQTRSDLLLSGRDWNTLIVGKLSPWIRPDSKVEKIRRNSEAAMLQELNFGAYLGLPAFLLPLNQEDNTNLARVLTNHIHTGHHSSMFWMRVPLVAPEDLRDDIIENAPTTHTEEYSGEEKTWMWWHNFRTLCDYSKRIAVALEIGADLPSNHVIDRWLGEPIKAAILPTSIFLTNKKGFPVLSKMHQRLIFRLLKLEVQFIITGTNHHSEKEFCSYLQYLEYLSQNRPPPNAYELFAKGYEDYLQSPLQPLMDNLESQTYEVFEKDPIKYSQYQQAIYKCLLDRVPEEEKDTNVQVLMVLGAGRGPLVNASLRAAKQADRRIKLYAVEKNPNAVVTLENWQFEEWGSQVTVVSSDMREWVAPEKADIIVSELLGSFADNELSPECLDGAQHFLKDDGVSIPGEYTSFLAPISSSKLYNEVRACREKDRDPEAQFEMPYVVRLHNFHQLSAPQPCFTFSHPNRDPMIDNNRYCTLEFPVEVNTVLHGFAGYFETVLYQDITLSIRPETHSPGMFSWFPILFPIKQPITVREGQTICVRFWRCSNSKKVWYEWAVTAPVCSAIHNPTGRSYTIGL
T1 sequence (Q9BQA1 whole entry partner): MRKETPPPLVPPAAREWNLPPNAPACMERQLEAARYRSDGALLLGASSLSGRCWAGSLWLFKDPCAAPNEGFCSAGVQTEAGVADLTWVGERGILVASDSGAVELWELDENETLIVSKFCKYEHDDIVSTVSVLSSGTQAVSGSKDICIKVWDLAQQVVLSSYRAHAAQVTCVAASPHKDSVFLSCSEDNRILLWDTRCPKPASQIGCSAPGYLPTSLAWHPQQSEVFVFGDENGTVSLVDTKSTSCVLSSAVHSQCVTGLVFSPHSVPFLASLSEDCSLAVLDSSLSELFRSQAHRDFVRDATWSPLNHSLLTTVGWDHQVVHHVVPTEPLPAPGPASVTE

Regarding `CC(=O)N1CCN(c2cc(C(=O)NC[C@H](O)CN3CCc4cc(OCc5ocnc5C)c(F)cc4C3)cc(NC3CCC3)n2)CC1` [Compound 615, 2-(4-acetylpiperazin-1-yl)-6-(cyclobutylamino)-N-[(2S)-3-[7-fluoro-6-[(4-methyloxazol-5-yl)methoxy]-3,4-dihydro-1H-isoquinolin-2-yl]-2-hydroxy-propyl]pyridine-4-carboxamide], the negative logarithm of the IC50 (pIC50) against PRMT5 [1] is 5.30 to 6.30; at PRMT5 [2], 6.30 to 7.30; at PRMT5 [3], 6.30 to 7.30; with HAP1 MTAP-intact, 5.00 to 6.00; in the test with HAP1 MTAP-deleted, over 6.00. The “SAM/MTA Ratio” value at PRMT5 [3] (setting [4]) was “A (a Ki ratio greater than or equal to 10 fold between the Ki in the presence of SAM and the Ki in the presence of MTA)”. Moreover, in the test on HAP1 MTAP-deleted, the “MTAP Intact/Deleted Ratio” value is “A* (an IC50 ratio greater than or equal to 10 fold between the IC50 in the HAP1 MTAP-intact cell line and the HAP1 MTAP-deleted cell line)”.
As for `Cc1ncoc1COc1ccc2c(c1)CCN(C[C@@H](O)CNC(=O)c1cc(NC3CCC3)ncc1F)C2` [Compound 614, (S)-2-(cyclobutylamino)-5-fluoro-N-(2-hydroxy-3-(6-((4-methyloxazol-5-yl)methoxy)-3,4-dihydroisoquinolin-2(1H)-yl)propyl)isonicotinamide], the pIC50 is 5.30 to 6.30 on PRMT5 [1]; 6.30 to 7.30 on PRMT5 [2]; 6.30 to 7.30 on PRMT5 [3]; 5.00 to 6.00 with HAP1 MTAP-intact; over 6.00 in the test on HAP1 MTAP-deleted. For the same molecule, the “SAM/MTA Ratio” value on PRMT5 [3] (setting [4]) is “A (a Ki ratio greater than or equal to 10 fold between the Ki in the presence of SAM and the Ki in the presence of MTA)”. Moreover, in the test on HAP1 MTAP-deleted, the “MTAP Intact/Deleted Ratio” value is “C* (an IC50 ratio of less than 3 fold between the IC50 in the HAP1 MTAP-intact cell line and the HAP1 MTAP-deleted cell line)”.
`Cc1c(OCc2cnco2)ccc2c1CCN(C[C@@H](O)CNC(=O)c1cc(NC3CCN(C(=O)C(C)(C)C)CC3)ncn1)C2` [Compound 523, 6-{[1-(2,2-dimethylpropanoyl)piperidin-4-yl]amino}-N-[(2S)-2-hydroxy-3-{5-methyl-6-[(1,3-oxazol-5-yl)methoxy]-1,2,3,4-tetrahydroisoquinolin-2-yl}propyl]pyrimidine-4-carboxamide]: the negative logarithm of the IC50 (pIC50) was at most 5.30 at PRMT5 [1]; 6.30 to 7.30 at PRMT5 [2]; 6.30 to 7.30 on PRMT5 [3]; at most 5.00 with HAP1 MTAP-intact; at most 5.00 with HAP1 MTAP-deleted. Further, the “SAM/MTA Ratio” value at PRMT5 [3] (setting [4]) is “A (a Ki ratio greater than or equal to 10 fold between the Ki in the presence of SAM and the Ki in the presence of MTA)”. Further, the “MTAP Intact/Deleted Ratio” value in the test with HAP1 MTAP-deleted was “C* (an IC50 ratio of less than 3 fold between the IC50 in the HAP1 MTAP-intact cell line and the HAP1 MTAP-deleted cell line)”.
Consider `O=C(NC[C@H](O)CN1CCc2cc(OCc3cnco3)ccc2C1)c1ccnc(NC2CCN(C(=O)C3CC3)CC2)c1` [Compound 450, 2-[[1-(cyclopropanecarbonyl)-4-piperidyl]amino]-N-[(2S)-2-hydroxy-3-[6-(oxazol-5-ylmethoxy)-3,4-dihydro-1H-isoquinolin-2-yl]propyl]pyridine-4-carboxamide], for which the negative logarithm of the IC50 (pIC50) is 5.30 to 6.30 on PRMT5 [1]; 6.30 to 7.30 at PRMT5 [2]; 6.30 to 7.30 on PRMT5 [3]; at most 5.00 in the test with HAP1 MTAP-intact; over 6.00 in the test on HAP1 MTAP-deleted. Further, at PRMT5 [3] (setting [4]), the “SAM/MTA Ratio” value was “A (a Ki ratio greater than or equal to 10 fold between the Ki in the presence of SAM and the Ki in the presence of MTA)”. In the test on HAP1 MTAP-deleted, the “MTAP Intact/Deleted Ratio” value was “A* (an IC50 ratio greater than or equal to 10 fold between the IC50 in the HAP1 MTAP-intact cell line and the HAP1 MTAP-deleted cell line)”.
With `CC(C)C(=O)N1CCN(c2nc(NC3COC3)cc(C(=O)NC[C@H](O)CN3CCc4cc(OCc5cnco5)ccc4C3)n2)CC1` [Compound 313], the negative-log IC50 (pIC50) on PRMT5 [1] (read-out: No Co-factor IC50) was 5.30 to 6.30; at PRMT5 [2], 6.30 to 7.30; on PRMT5 [3], 6.30 to 7.30; with HAP1 MTAP-intact, 5.00 to 6.00; in the test with HAP1 MTAP-deleted, 5.00 to 6.00. Moreover, the “SAM/MTA Ratio” value at PRMT5 [3] (setting [5]) was “A (a Ki ratio greater than or equal to 10 fold between the Ki in the presence of SAM and the Ki in the presence of MTA)”. Besides, in the test on HAP1 MTAP-deleted, the “MTAP Intact/Deleted Ratio” value is “C* (an IC50 ratio of less than 3 fold between the IC50 in the HAP1 MTAP-intact cell line and the HAP1 MTAP-deleted cell line)”.
For `Cc1ncoc1COc1cc2c(cc1F)CN(C[C@@H](O)CNC(=O)c1ccnc(Nc3cccnc3)c1)CC2` [Compound 600, N-[(2S)-3-[7-fluoro-6-[(4-methyloxazol-5-yl)methoxy]-3,4-dihydro-1H-isoquinolin-2-yl]-2-hydroxy-propyl]-2-(3-pyridylamino)pyridine-4-carboxamide], the pIC50 against PRMT5 [1] is at most 5.30; at PRMT5 [2], 6.30 to 7.30; at PRMT5 [3] it was 6.30 to 7.30; in the test on HAP1 MTAP-intact, at most 5.00; in the test with HAP1 MTAP-deleted, 5.00 to 6.00. Also, on PRMT5 [3] (setting [4]), the “SAM/MTA Ratio” value was “A (a Ki ratio greater than or equal to 10 fold between the Ki in the presence of SAM and the Ki in the presence of MTA)”. Besides, in the test with HAP1 MTAP-deleted, the “MTAP Intact/Deleted Ratio” value is “B* (an IC50 ratio greater than or equal to 3 fold but lower than 10 fold between the IC50 in the HAP1 MTAP-intact cell line and the HAP1 MTAP-deleted cell line)”.
Turning to `CCN1CCN(c2nc(NC3COC3)cc(C(=O)NC[C@H](O)CN3CCc4cc(OCc5cnco5)ccc4C3)n2)CC1` [Compound 353], the pIC50 is 5.30 to 6.30 on PRMT5 [1] (read-out: No Co-factor IC50); 6.30 to 7.30 on PRMT5 [2]; 6.30 to 7.30 on PRMT5 [3]; 5.00 to 6.00 with HAP1 MTAP-intact; 5.00 to 6.00 in the test on HAP1 MTAP-deleted. Besides, at PRMT5 [3] (setting [5]), the “SAM/MTA Ratio” value is “A (a Ki ratio greater than or equal to 10 fold between the Ki in the presence of SAM and the Ki in the presence of MTA)”. For the same molecule, in the test on HAP1 MTAP-deleted, the “MTAP Intact/Deleted Ratio” value was “C* (an IC50 ratio of less than 3 fold between the IC50 in the HAP1 MTAP-intact cell line and the HAP1 MTAP-deleted cell line)”.
With `O=C(NC[C@H](O)CN1CCc2cc(OCc3cnco3)ccc2C1)c1cc(NC2CCC2)ncc1F` [Compound 334, (S)-2-(cyclobutylamino)-5-fluoro-N-(2-hydroxy-3-(6-(oxazol-5-ylmethoxy)-3A-dihydroisoquinolin-2(1H)-yl)propyl)isonicotinamide], the pIC50 on PRMT5 [1] (read-out: No Co-factor IC50) is at most 5.30; at PRMT5 [2] it was 5.30 to 6.30; on PRMT5 [3] it was 6.30 to 7.30; with HAP1 MTAP-intact it was over 6.00; with HAP1 MTAP-deleted it was over 6.00. Also, the “SAM/MTA Ratio” value on PRMT5 [3] (setting [5]) is “A (a Ki ratio greater than or equal to 10 fold between the Ki in the presence of SAM and the Ki in the presence of MTA)”. Moreover, the “MTAP Intact/Deleted Ratio” value in the test on HAP1 MTAP-deleted was “C* (an IC50 ratio of less than 3 fold between the IC50 in the HAP1 MTAP-intact cell line and the HAP1 MTAP-deleted cell line)”.
For the molecule `Cc1ncoc1COc1ccc2c(c1)CCN(C[C@@H](O)CNC(=O)c1cc(CC(C)C)nc(NC3CCC3)c1)C2` [Compound 439, 2-(cyclobutylamino)-N-[(2S)-2-hydroxy-3-{6-[(4-methyl-1,3-oxazol-5-yl)methoxy]-1,2,3,4-tetrahydroisoquinolin-2-yl}propyl]-6-(2-methylpropyl)pyridine-4-carboxamide], the pIC50 is at most 5.30 against PRMT5 [1]; 6.30 to 7.30 at PRMT5 [2]; 6.30 to 7.30 on PRMT5 [3]; 5.00 to 6.00 in the test on HAP1 MTAP-intact; over 6.00 in the test on HAP1 MTAP-deleted. The “SAM/MTA Ratio” value on PRMT5 [3] (setting [4]) is “A (a Ki ratio greater than or equal to 10 fold between the Ki in the presence of SAM and the Ki in the presence of MTA)”. The “MTAP Intact/Deleted Ratio” value in the test on HAP1 MTAP-deleted was “C* (an IC50 ratio of less than 3 fold between the IC50 in the HAP1 MTAP-intact cell line and the HAP1 MTAP-deleted cell line)”.
Regarding `O=C(NC[C@H](O)CN1CCc2c(ccc(OCc3cnco3)c2Cl)C1)c1ccnc(NC2CCC(F)(F)CC2)c1` [Compound 425, (S)—N-(3-(5-chloro-6-(oxazol-5-ylmethoxy)-3,4-dihydroisoquinolin-2(1H)-yl)-2-hydroxypropyl)-2-((4N-difluorocyclohexyl)amino)isonicotinamide], the pIC50 at PRMT5 [1] (read-out: No Co-factor IC50) was at most 5.30; on PRMT5 [2] it was 6.30 to 7.30; at PRMT5 [3] it was 6.30 to 7.30; in the test with HAP1 MTAP-intact it was at most 5.00; in the test on HAP1 MTAP-deleted it was at most 5.00. Moreover, the “SAM/MTA Ratio” value on PRMT5 [3] (setting [5]) was “A (a Ki ratio greater than or equal to 10 fold between the Ki in the presence of SAM and the Ki in the presence of MTA)”. For the same molecule, the “MTAP Intact/Deleted Ratio” value in the test with HAP1 MTAP-deleted was “C* (an IC50 ratio of less than 3 fold between the IC50 in the HAP1 MTAP-intact cell line and the HAP1 MTAP-deleted cell line)”.
Take `O=C(NC[C@H](O)CN1CCc2cc(OCc3cnco3)ccc2C1)c1cncc(NC2CCOC2)c1` (stereo partly drawn) [Compound 355, N—((S)-2-hydroxy-3-(6-(oxazol-5-ylmethoxy)-3,4-dihydroisoquinolin-2(1H)-yl)propyl)-5-((tetrahydrofuran-3-yl)amino)nicotinamide]: the negative-log IC50 (pIC50) was at most 5.30 at PRMT5 [1] (read-out: No Co-factor IC50); 5.30 to 6.30 at PRMT5 [2]; 6.30 to 7.30 on PRMT5 [3]; at most 5.00 in the test with HAP1 MTAP-intact; at most 5.00 with HAP1 MTAP-deleted. In addition, the “SAM/MTA Ratio” value on PRMT5 [3] (setting [5]) was “A (a Ki ratio greater than or equal to 10 fold between the Ki in the presence of SAM and the Ki in the presence of MTA)”. The “MTAP Intact/Deleted Ratio” value in the test with HAP1 MTAP-deleted is “C* (an IC50 ratio of less than 3 fold between the IC50 in the HAP1 MTAP-intact cell line and the HAP1 MTAP-deleted cell line)”.
